Results taken from US20060069132A1, “Azolecarboxamide herbicides” (priority 2004, published 2006).

Assays:
[1] = system: barnyardgrass; assay: Test A pre-/postemergence herbicide test; format: in vivo, Echinochloa crus-galli
Outline: (§1)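 Plants are held in greenhouse about ten days after treatment, then compared with untreated controls and scored 0 (no effect) to 100 (complete control). Preemergence dosing is a directed soil spray on sown sandy loam; postemergence dosing is spray to runoff at 2–10 cm height.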

[2] = system: large crabgrass; assay: Test A pre-/postemergence herbicide test; format: in vivo, Digitaria sanguinalis
Outline: as §1

[3] = system: giant foxtail; assay: Test A pre-/postemergence herbicide test; format: in vivo, Setaria faberi
Outline: as §1

[4] = system: morningglory; assay: Test A pre-/postemergence herbicide test; format: in vivo, Ipomoea spp.
Outline: as §1

[5] = system: redroot pigweed; assay: Test A pre-/postemergence herbicide test; format: in vivo, Amaranthus retroflexus
Outline: as §1

[6] = system: velvetleaf; assay: Test A pre-/postemergence herbicide test; format: in vivo, Abutilon theophrasti
Outline: as §1

[7] = system: barnyardgrass; assay: Test B pre-/postemergence herbicide test; format: in vivo, Echinochloa crus-galli; details: for Barnyardgrass plant response rating: postemergence, visual rating, scale 0 (no effect) to 100 (complete control)
Outline: (§2)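 Flooded paddy rice and barnyardgrass were treated at the 2-leaf stage; upland plantings received compound either on sown seed or on 1- to 4-leaf seedlings. All were kept 13–15 days in a greenhouse and scored visually, 0–100, relative to untreated plants.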

[8] = system: Surinam grass; assay: Test B pre-/postemergence herbicide test; format: in vivo, Urochloa decumbens; details: for Surinam Grass plant response rating: postemergence, visual rating, scale 0 (no effect) to 100 (complete control)
Outline: (§3)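 Greenhouse pot assay with simultaneous preemergence (treated seed) and postemergence (2–18 cm seedlings) applications of surfactant-containing, non-phytotoxic solvent formulations. Response scored visually 13–15 days later on a 0–100 scale, 100 meaning complete control.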

[9] = system: cocklebur; assay: Test B pre-/postemergence herbicide test; format: in vivo, Xanthium strumarium; details: for Cocklebur plant response rating: postemergence, visual rating, scale 0 (no effect) to 100 (complete control)
Outline: as §2

[10] = system: corn; assay: Test B pre-/postemergence herbicide test; format: in vivo, Zea mays; details: for Corn plant response rating: postemergence, visual rating, scale 0 (no effect) to 100 (complete control)
Outline: as §3

[11] = system: large crabgrass; assay: Test B pre-/postemergence herbicide test; format: in vivo, Digitaria sanguinalis; details: for Crabgrass, Large plant response rating: postemergence, visual rating, scale 0 (no effect) to 100 (complete control)
Outline: as §3

[12] = system: giant foxtail; assay: Test B pre-/postemergence herbicide test; format: in vivo, Setaria faberi; details: for Foxtail, Giant plant response rating: postemergence, visual rating, scale 0 (no effect) to 100 (complete control)
Outline: as §3

[13] = system: lambsquarters; assay: Test B pre-/postemergence herbicide test; format: in vivo, Chenopodium album; details: for Lambsquarters plant response rating: postemergence, visual rating, scale 0 (no effect) to 100 (complete control)
Outline: as §3

[14] = system: morningglory; assay: Test B pre-/postemergence herbicide test; format: in vivo, Ipomoea coccinea; details: for Morningglory plant response rating: postemergence, visual rating, scale 0 (no effect) to 100 (complete control)
Outline: as §2

[15] = system: pigweed; assay: Test B pre-/postemergence herbicide test; format: in vivo, Amaranthus retroflexus; details: for Pigweed plant response rating: postemergence, visual rating, scale 0 (no effect) to 100 (complete control)
Outline: as §3

[16] = system: rice; assay: Test B pre-/postemergence herbicide test; format: in vivo, Oryza sativa; details: preemergence
Outline: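 Species tested were Echinochloa crus-galli, Ipomoea coccinea, Xanthium strumarium and Oryza sativa, treated both before emergence and at the 1- to 4-leaf stage; rice and barnyardgrass were also tested under flooding at 2 leaves. Greenhouse incubation lasted 13–15 days before visual 0–100 scoring.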

[17] = system: velvetleaf; assay: Test B pre-/postemergence herbicide test; format: in vivo, Abutilon theophrasti; details: for Velvetleaf plant response rating: postemergence, visual rating, scale 0 (no effect) to 100 (complete control)
Outline: as §3

[18] = system: blackgrass; assay: Test B postemergence herbicide test; format: in vivo, Alopecurus myosuroides; details: postemergence, visual rating, scale 0 (no effect) to 100 (complete control)
Outline: (§4)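 After treating 2-leaf paddy plants or 2–18 cm postemergence plants (1 to 4 leaves) with formulated chemical, researchers kept them in a greenhouse for 13–15 days. Effects were judged visually versus controls: 0 indicates none, 100 total control.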

[19] = system: wheat; assay: Test B postemergence herbicide test; format: in vivo, Triticum aestivum; design: key to Wheat plant response rating: 0 = no effect, 100 = complete control; details: postemergence, visual rating, scale 0 (no effect) to 100 (complete control)
Outline: (§5)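 Visual ratings, 0 (no effect) to 100 (complete control), made versus controls after 13–15 d greenhouse. Paddy plants treated at 2-leaf stage; postemergence plants at 1- to 4-leaf stage, 2–18 cm tall.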

[20] = system: wild oat; assay: Test B postemergence herbicide test; format: in vivo, Avena fatua; details: postemergence, visual rating, scale 0 (no effect) to 100 (complete control)
Outline: as §5

[21] = system: rice; assay: Test B flooded paddy test; format: in vivo, Oryza sativa; details: 1000 g ai/ha, visual rating, scale 0 to 100 (0 no effect, 100 complete control), 13 to 15 days
Outline: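 Greenhouse test; postemergence application to plants at 1–4 leaves (2–18 cm); paddy species at 2 leaves; evaluated visually vs controls at 13–15 days; scale 0–100 (100 = complete control).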

[22] = system: small flower umbrella sedge; assay: Test B flooded paddy test; format: in vivo, Cyperus difformis; details: 1000 g ai/ha, visual rating, scale 0 to 100 (0 no effect, 100 complete control), 13 to 15 days
Outline: as §4

[23] = system: ducksalad; assay: Test B flooded paddy test; format: in vivo, Heteranthera limosa; details: 1000 g ai/ha, visual rating, scale 0 to 100 (0 no effect, 100 complete control), 13 to 15 days
Outline: as §4

[24] = system: barnyardgrass; assay: Test B flooded paddy test; format: in vivo, Echinochloa crus-galli; details: 1000 g ai/ha, visual rating, scale 0 to 100 (0 no effect, 100 complete control), 13 to 15 days
Outline: as §4

[25] = Postemergence, 500 g ai/ha, 0 to 100 scale, 0 no effect, 100 complete control
[26] = Postemergence, 2000 g ai/ha, 0 to 100 scale, 0 no effect, 100 complete control
[27] = Preemergence, 2000 g ai/ha, visual rating, 0 to 100 scale (0 no effect, 100 complete control)
[28] = preemergence, 500 g ai/ha, visual injury, 0 to 100 scale (0 no effect, 100 complete control)
[29] = 125 g ai/ha, 0 = no effect, 100 = complete control, preemergence
[30] = 500 g ai/ha, visual rating 0-100, 0 no effect, 100 complete control, preemergence

Compound: CCc1nc(C(C)(C)C)sc1C(=O)Nc1cccc(C(=O)NCC(C)C)c1 [Compound 211]
- Barnyardgrass plant response rating [1, 25]: 25
- Plant response rating, Barnyardgrass [1, 26]: 55
- Barnyardgrass plant response rating [1, 27]: 70
- Barnyardgrass plant response rating [1, 28]: 55
- Crabgrass, Large plant response rating [2, 25]: 20
- Plant response rating, Crabgrass, Large [2, 26]: 30
- Crabgrass, Large plant response rating [2, 27]: 85
- Crabgrass, Large plant response rating [2, 28]: 75
- Foxtail, Giant plant response rating [3, 25]: 20
- Plant response rating, Foxtail, Giant [3, 26]: 30
- Foxtail, Giant plant response rating [3, 27]: 70
- Foxtail, Giant plant response rating [3, 28]: 45
- Morningglory plant response rating [4, 25]: 20
- Plant response rating, Morningglory [4, 26]: 15
- Morningglory plant response rating [4, 27]: 25
- Morningglory plant response rating [4, 28]: 10
- Pigweed plant response rating [5, 25]: 25
- Plant response rating, Pigweed [5, 26]: 25
- Pigweed plant response rating [5, 27]: 40
- Pigweed plant response rating [5, 28]: 30
- Velvetleaf plant response rating [6, 25]: 15
- Plant response rating, Velvetleaf [6, 26]: 25
- Velvetleaf plant response rating [6, 27]: 65
- Velvetleaf plant response rating [6, 28]: 25
- Barnyardgrass plant response rating (0 to 100 scale) [7, 29]: 10
- Plant response rating, Barnyardgrass [7, 30]: 50
- Barnyardgrass plant response rating ([7]; 125 g ai/ha): 10
- Barnyardgrass plant response rating ([7]; 500 g ai/ha): 10
- Surinam Grass plant response rating (0 to 100 scale) [8, 29]: 0
- Plant response rating, Surinam Grass [8, 30]: 30
- Surinam Grass plant response rating ([8]; 125 g ai/ha): 10
- Surinam Grass plant response rating ([8]; 500 g ai/ha): 10
- Cocklebur plant response rating (0 to 100 scale) [9, 29]: 0
- Plant response rating, Cocklebur [9, 30]: 0
- Cocklebur plant response rating ([9]; 125 g ai/ha): 30
- Cocklebur plant response rating ([9]; 500 g ai/ha): 60
- Corn plant response rating (0 to 100 scale) [10, 29]: 0
- Plant response rating, Corn [10, 30]: 10
- Corn plant response rating ([10]; 125 g ai/ha): 10
- Corn plant response rating ([10]; 500 g ai/ha): 10
- Crabgrass, Large plant response rating (0 to 100 scale) [11, 29]: 10
- Plant response rating, Crabgrass, Large [11, 30]: 70
- Crabgrass, Large plant response rating ([11]; 125 g ai/ha): 10
- Crabgrass, Large plant response rating ([11]; 500 g ai/ha): 10
- Foxtail, Giant plant response rating (0 to 100 scale) [12, 29]: 10
- Plant response rating, Foxtail, Giant [12, 30]: 50
- Foxtail, Giant plant response rating ([12]; 125 g ai/ha): 10
- Foxtail, Giant plant response rating ([12]; 500 g ai/ha): 10
- Lambsquarters plant response rating (0 to 100 scale) [13, 29]: 10
- Plant response rating, Lambsquarters [13, 30]: 80
- Lambsquarters plant response rating ([13]; 125 g ai/ha): 60
- Lambsquarters plant response rating ([13]; 500 g ai/ha): 70
- Morningglory plant response rating (0 to 100 scale) [14, 29]: 0
- Plant response rating, Morningglory [14, 30]: 10
- Morningglory plant response rating ([14]; 125 g ai/ha): 10
- Morningglory plant response rating ([14]; 500 g ai/ha): 30
- Pigweed plant response rating (0 to 100 scale) [15, 29]: 0
- Plant response rating, Pigweed [15, 30]: 30
- Pigweed plant response rating ([15]; 125 g ai/ha): 10
- Pigweed plant response rating ([15]; 500 g ai/ha): 30
- Rice plant response rating (0 to 100 scale) ([16]; 125 g ai/ha, 0 = no effect, 100 = complete control): 0
- Plant response rating, Rice ([16]; 500 g ai/ha, visual rating 0-100, 0 no effect, 100 complete control): 10
- Velvetleaf plant response rating (0 to 100 scale) [17, 29]: 0
- Plant response rating, Velvetleaf [17, 30]: 10
- Velvetleaf plant response rating ([17]; 125 g ai/ha): 30
- Velvetleaf plant response rating ([17]; 500 g ai/ha): 30
- Blackgrass plant response rating ([18]; 125 g ai/ha): 10
- Blackgrass plant response rating ([18]; 500 g ai/ha): 10
- Wheat plant response rating ([19]; 125 g ai/ha): 10
- Wheat plant response rating ([19]; 500 g ai/ha): 10
- Oat, Wild plant response rating ([20]; 125 g ai/ha): 10
- Oat, Wild plant response rating ([20]; 500 g ai/ha): 10
- Rice plant response rating [21]: 20
- Sedge, Umbrella plant response rating [22]: 30
- Ducksalad plant response rating [23]: 80
- Barnyardgrass plant response rating [24]: 20
